Assay results from US10729695B2, “Amino, amido and heterocyclic compounds as modulators of RAGE activity and uses thereof” (The Research Foundation for the State University of New York, priority 2013, dated 2020).

Tests used:
[1] = tested on: primary murine aortic smooth muscle cells; assay: Murine smooth muscle cell migration (scratch wound, CML AGE); format: cell-based, C57BL/6 mice; conditions: 1 μM pre-treatment 1.5 hours, CML AGE 100 μg/ml, 7 hrs
Description: Effects of CB-1 to CB-14 on Murine Smooth Muscle Cell Migration. Primary murine aortic smooth muscles retrieved from wild type C57BL/6 mice were grown to 90% confluency in medium containing 10% fetal bovine serum. Cells were serum starved for 16 hrs during which time fetal bovine serum was replaced with 0.1% bovine serum albumin. Following this period of serum starvation, cells were pre-treated for 1.5 hours with the indicated Chembridge library hit denoted #1-14 at a concentration of 1 μM. At the end of that time, compounds were removed and cell monolayers were vertically scratched with a pipet tip to create a “wound” and then RAGE ligand carboxy methyl lysine human serum albumin (CML AGE), 100 μg/ml, was added for 7 hrs. Photographs of the monolayer were taken at time 0 (time of scratch/CML AGE) and at 7 hrs. The ingrowth of the cells was then noted and % area ingrowth was calculated comparing ingrowth at baseline to that at 7 hrs. N=triplicate experiments. * indicates p<0.05

RAGE tail = RAGE tail (Homo sapiens (Human), UniProt Q15109); assay: RAGE tail fluorescence titration (Kd determination); conditions: binding to RAGE tail
Sequence of RAGE tail (Q15109 364-404): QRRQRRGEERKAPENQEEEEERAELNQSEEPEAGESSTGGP
Description: Binding affinities of small molecules for either CT-RAGE or FH1 are determined by performing fluorescence titrations to generate binding isotherms and standard SPR experiments.
A number of representative amino and amido compounds of this invention were or can be tested for their inhibitory activity.
(§1) Fluorescence quenching was used to determine binding.
A number of representative heterocylic compounds of this invention were or can be tested for their inhibitory activity.
as §1, §1

[2] = tested on: delayed type hypersensitivity (DTH) mediated inflammation in mice; assay: In vivo model of delayed type hypersensitivity (DTH), paw inflammation score; set-up: species or system CF-1 mice; conditions: 5 mg/kg intraperitoneal, four doses; for Inflammation Score Compound ± SEM: paw scored 16 hrs after mBSA, scale 1-5, n=5 mice/group; for reduction in inflammation score in the paw compared to vehicle: vs DMSO vehicle
Description: Effects of CB Compounds 1-14 on an in vivo model of delayed type hypersensitivity (DTH). Female CF-1 mice were purchased from the Jackson Laboratories (Bar Harbor Me.) and after a period of at least 3 days acclimation in the animal facility, mice were sensitized over the left inguinal lymph node with an emulsion (0.1 ml) containing methylated bovine serum albumin (mBSA, Sigma, 25 mg/ml), NaCl (0.9%), dextran 5-40×10^6 MW; 50 mg/ml (Sigma), and Freunds' incomplete adjuvant (50%). On day 19 and 20 after sensitization, mice received an intraperitoneal dose of one of CB compounds 1-14 at 5 mg/kg/body weight mouse for a total of four doses. Control animals received equal volumes of compound diluent, DMSO. Immediately following the final compound injection (4th dose), mBSA (0.4 mg/ml; 0.050 ml) was injected into the left plantar hind paw. The paw was scored 16 hrs later by 2 investigators naive to the experimental condition and according to the following criteria: 1=absence of any inflammation; 2=slight rubor and edema; 3=moderate rubor and edema with skin wrinkles; 4=severe rubor and edema without skin wrinkles and 5=severe rubor and edema with toe spreading. See also Hofmann et al. (1999, Cell 97:889-901), the entire content of which is incorporated herein in its entirety. In these experiments, n=5 mice/group.

[3] = tested on: primary human aortic smooth muscle cells; assay: Human smooth muscle cell migration (scratch wound, CML AGE); format: cell-based; conditions: 1 μM pre-treatment 1.5 hours, CML AGE 100 μg/ml, 7 hrs
Description: Effects of CB-1 to CB-14 on Human Smooth Muscle Cell Migration. Primary human aortic smooth muscles were purchased from Lonza and were grown to 90% confluency in medium containing 10% fetal bovine serum. Cells were serum starved for 16 hrs during which time fetal bovine serum was replaced with 0.1% bovine serum albumin. Following this period of serum starvation, cells were pre-treated for 1.5 hours with the indicated Chembridge library hit denoted #1-14 at a concentration of 1 μM. At the end of that time, compounds were removed and cell monolayers were vertically scratched with a pipet tip to create a “wound” and then RAGE ligand carboxy methyl lysine human serum albumin (CML AGE), 100 μg/ml, was added for 7 hrs. Photographs of the monolayer were taken at time 0 (time of scratch/CML AGE) and at 7 hrs. The ingrowth of the cells was then noted and % area ingrowth was calculated comparing ingrowth at baseline to that at 7 hrs. N=triplicate experiments. * indicates p<0.05 (FIG. 8)

[4] = molecular target: RAGE tail (ctRAGE) binding to mDial (Homo sapiens (Human), UniProt Q15109); assay: Primary screen: binding of GFP RAGE tail to mDial at one concentration (10 uM); conditions: 10 μM compound
Sequence of RAGE tail (ctRAGE) binding to mDial (Q15109 364-404): as above
Description: Primary screening was a two-step process in which compounds were first tested in a high throughput assay at one concentration (10 uM). Compounds that reduced binding of RAGE tail (ctRAGE) by at least 50% were then selected and subjected to 4-point dose response (10 uM, 1 uM, 0.1 uM and 0.01 uM) (FIGS. 1, 4, and 5).
Step 1. Add 50 μl anti-mDial (1:160 dilution in 0.1M NaHCO3 pH 9.6)/well. Incubate overnight at 4° C.
Step 2. Use the plate washer to aspirate anti-mDial and wash plates 4× with PBS 100 μl per well per wash.
Step 3. Add 180 μl 3% BSA in 1×PBS. Incubate for 1.5 hrs at room temperature
Step 4. Use the plate washer to aspirate the blocking solution and wash 5× with PBS 300 μl per well.
Step 5. Add 50 μl of mDial containing lysate (85 μg) and incubate at RT for 3 hours.
Step 6. Aspirate the lysate and wash the plate 5× (100 μl) on the plate washer.
Step 7. Add 25 μl PBS to the wells.
Step 8. Add 0.5 μL compound per well.
Step 9. Add 24.5 μL GFP RAGE tail (125 nM) into each well for 2 hrs at room temperature.
Step 10. Aspirate and wash 5× with PBS (100 μL) on the plate washer.
Step 11. Add 100 ul PBS in each well.
Step 12. Detection: Read on fluorescence plate reader excitation 435 nm and 485 nm emission
Compounds that blocked the binding of RAGE tail to mDial by 50% or more were subjected to 4 point dose response: 10 μM, 1 μM, 0.1 μM and 0.01 μM.

Row | Kd (RAGE tail) [nM] | inhibition at 10 µM [4] [%] | Structure (SMILES) | RAGE ligand CML AGE-mediated ingrowth (migration) [1] | Inflammation Score Compound ± SEM [2] | RAGE ligand CML AGE-mediated ingrowth (migration) [3] | reduction in inflammation score in the paw compared to vehicle [2]
1 | 4 ± 1 |  | COc1cc(SC)ccc1C(=O)Nc1cccc(C)n1 [CB-1] | no inhibitory effect | 3.4 ± 0.55/3.4 ± 0.55 | no inhibitory effect | 
2 | 6.5 ± 1 |  | C=CCOc1ccc2c(C(F)(F)F)cc(=O)oc2c1 [CB-2] | prevent RAGE ligand CML AGE-mediated ingrowth (migration) | 3.2 ± 0.45/3.4 ± 0.55 | prevent RAGE ligand CML AGE-mediated ingrowth (migration) | 
3 | 18 ± 1 |  | Cc1nc2ccccc2n1CC(O)Cn1c2ccccc2c2ccccc21 (stereo not shown) [CB-3] | prevent RAGE ligand CML AGE-mediated ingrowth (migration) | 2.2 ± 0.45/3.4 ± 0.55 | prevent RAGE ligand CML AGE-mediated ingrowth (migration) | statistically significant reduction in inflammation score
4 | 2 ± 1 |  | OC(Cn1ccc2ccccc21)Cn1cnc2ccccc21 (stereo not shown) [CB-4] | prevent RAGE ligand CML AGE-mediated ingrowth (migration) | 3.0 ± 0.71/3.4 ± 0.55 | prevent RAGE ligand CML AGE-mediated ingrowth (migration) | 
5 |  |  | Oc1cccc(Nc2nc(-c3ccc(F)cc3F)cs2)c1 [CB-5] | prevent RAGE ligand CML AGE-mediated ingrowth (migration) | 3.6 ± 0.55/3.4 ± 0.55 | prevent RAGE ligand CML AGE-mediated ingrowth (migration) | 
6 |  |  | COc1cc(NC(C)=O)c(Cl)cc1C(=O)Nc1nccs1 [CB-6] | prevent RAGE ligand CML AGE-mediated ingrowth (migration) | 3.0 ± 0.71/3.6 ± 0.55 | prevent RAGE ligand CML AGE-mediated ingrowth (migration) | 
7 | 0.55 ± 0.05 |  | COc1ccccc1-c1cc(C(F)(F)F)nc(N2CCOCC2)n1 [CB-7] | prevent RAGE ligand CML AGE-mediated ingrowth (migration) | 3.4 ± 0.55/3.6 ± 0.55 | prevent RAGE ligand CML AGE-mediated ingrowth (migration) | 
8 | 2 ± 0.5 |  | COC(=O)c1cc(OC)c(OC)cc1NC(=O)C1Oc2ccccc2OC1C (stereo not shown) [CB-8] | prevent RAGE ligand CML AGE-mediated ingrowth (migration) | 3.4 ± 0.55/3.6 ± 0.55 | prevent RAGE ligand CML AGE-mediated ingrowth (migration) | 
9 | 17300 ± 500 |  | Cc1ccc(S(=O)(=O)N(C)C(F)F)cc1 [CB-9] | prevent RAGE ligand CML AGE-mediated ingrowth (migration) | 3.6 ± 0.55/3.6 ± 0.55 | prevent RAGE ligand CML AGE-mediated ingrowth (migration) | 
10 |  |  | CC1=NN(c2nc3ccccc3[nH]2)C(=O)C1CCC(C)C (stereo not shown) [CB-10] | prevent RAGE ligand CML AGE-mediated ingrowth (migration) | 3.2 ± 0.84/3.6 ± 0.55 | prevent RAGE ligand CML AGE-mediated ingrowth (migration) | 
11 | 1.2 ± 0.5 |  | Cc1cc2n(c1)CCn1c(C)ccc1-2 [CB-11] | prevent RAGE ligand CML AGE-mediated ingrowth (migration) | 3.2 ± 0.45/3.4 ± 0.55 | prevent RAGE ligand CML AGE-mediated ingrowth (migration) | 
12 | > 100000 |  | COC(=O)c1cc(-c2ccc(NC(C)=O)cc2)nc2ccccc12 [CB-12] | prevent RAGE ligand CML AGE-mediated ingrowth (migration) | 2.4 ± 0.55/3.4 ± 0.55 | prevent RAGE ligand CML AGE-mediated ingrowth (migration) | statistically significant reduction in inflammation score
13 | 123 ± 1 |  | Cc1c(Cl)cccc1NC(=O)CNC(=O)c1ccccc1F [CB-13] | prevent RAGE ligand CML AGE-mediated ingrowth (migration) | 3.4 ± 0.55/3.4 ± 0.55 | prevent RAGE ligand CML AGE-mediated ingrowth (migration) | 
14 | 1.4 ± 0.3 |  | Oc1ccc(NCc2ccc(Br)cc2)cc1 [CB-14] | prevent RAGE ligand CML AGE-mediated ingrowth (migration) | 3.2 ± 0.45/3.4 ± 0.55 | prevent RAGE ligand CML AGE-mediated ingrowth (migration) | 
15 |  | 31 | CC(=O)Nc1ccc(C(=O)Nc2nccs2)cc1 [CD-1] |  |  |  | 
16 | 75 |  | OC(Cn1ccnc1)Cn1c2ccccc2c2ccccc21 (stereo not shown) [CD-4] |  |  |  | 
17 | 4 |  | Cn1c(=O)n(CC(O)Cn2c3ccccc3c3ccccc32)c2ccccc21 (stereo not shown) [CD-6] |  |  |  | 
18 |  | 31 | CN(Cc1ccccc1)CC(O)Cn1cnc2ccccc21 (stereo not shown) [CD-7] |  |  |  | 
19 |  | 27 | N#Cc1ccc(OCC(O)Cn2cnc3ccccc32)cc1 (stereo not shown) [CD-8] |  |  |  | 
20 |  | 11 | O=C(O)COc1ccc2c(C(F)(F)F)cc(=O)oc2c1 [CD-12] |  |  |  | 
21 |  | 26 | OC(COCc1ccccc1)Cn1cnc2ccccc21 (stereo not shown) [CD-14] |  |  |  | 
22 |  | 69 | OC(COc1cccc2ccccc12)Cn1cnc2ccccc21 (stereo not shown) [CD-16] |  |  |  | 
23 |  | 45 | OC(CN(c1ccccc1)c1ccccc1)Cn1cnc2ccccc21 (stereo not shown) [CD-18] |  |  |  | 
24 |  | 24 | O=C(O)c1ccccc1OCC(O)Cn1cnc2ccccc21 (stereo not shown) [CD-19] |  |  |  | 
25 |  | 48 | CC1=NN(c2nc3ccccc3s2)C(=O)C1CCC(C)C (stereo not shown) [CD-20] |  |  |  | 
26 |  | 18 | COc1ccccc1-c1cc(C(F)(F)F)nc(NC2CCCCC2)n1 [CD-21] |  |  |  | 
27 |  | 37 | OC(COc1ccccc1)Cn1cnc2ccccc21 (stereo not shown) [CD-28] |  |  |  | 
28 | 78 |  | Cc1nccn1CC(O)Cn1c2ccccc2c2ccccc21 (stereo not shown) [CD-29] |  |  |  | 
29 |  | 42 | COc1ccccc1-c1cc(C(F)(F)F)nc(N2CCN(c3ccccc3OC)CC2)n1 [CD-42] |  |  |  | 
